Test results from US20260284011A1, “COMPOUNDS FOR RESTORING SUSCEPTIBILITY TO BETA-LACTAM ANTIBIOTICS” (UNIVERSITY OF NOTRE DAME DU LAC, priority 2023, published 2026).

Legend:
[1] = target: BlaR (Staphylococcus aureus, UniProt P18357); test: Live-cell fluorescent assay for BlaR inhibition (Venus reporter); assay type: cell-based, S. aureus NRS144pCN52RI-Venus; conditions: compound at 100 mg/L^−1; CBAP 10 mg·L^−1; fluorescence after 2 h
Excerpt: Live-Cell Fluorescent Assay in Discovery and Mechanism of Action. We conceived of fluorescent constructs in the bla operon, for the purpose of screening (FIG. 2a). We removed the gene for the β-lactamase (blaZ) and put in its place individually the genes for the Green Fluorescent Protein (GFP), Venus (a yellow-fluorescent protein) or mCherry (a red-fluorescent protein) in the template plasmid pCN52. The three plasmids were named pCN52RI, pCN52RI-Venus and pCN52RI-mCherry, respectively. The genes for the fluorescent proteins were transcribed under the promoter of the blaZ gene and were regulated by the proteins BlaR and BlaI, as is the case for the wild-type bla operon.
We transformed separately S. aureus NRS144—a laboratory strain that accepts a foreign gene and harbors neither the bla nor the mec operons—with each of these plasmids. […] When induced, the fluorescent protein is produced and is detected (akin to expression of the resistance genes blaZ or mecA in typical MSSA and MRSA). […] The transformed strains were grown in tryptic soy broth medium for overnight culture and strain maintenance and incubated in cation-adjusted Mueller-Hinton broth medium for inhibitor screening in a 96-well microplate format. The culture without CBAP addition was the negative control. In order to select a desirable reporter construct, we compared the intensity of the fluorescence produced from each construct at the wavelengths given in FIG. 2a using the Cytation-5 multi-mode microplate reader. Among the three constructs, pCN52RI-Venus produced the best fluorescence intensity and pCN52RI-mCherry was the second best (FIG. 4).
(§1) The collection of the 100 compounds from the in-silico search was screened against S. aureus NRS144pCN52RI-Venus. The screening strategy was as follows. Bacteria grown to OD600 of 0.25 were exposed concurrently to CBAP (10 mg·L^−1) and the test compound (100 mg·L^−1). Fluorescence was recorded after two hours of incubation. OD600 values were also recorded to identify compounds with inherent antibacterial activity. Compound 1 (Chart 1) emerged—82% diminished fluorescence as an indication of the extent of BlaR inhibition—as a suitable template for structure elaboration. This effort led to the synthesis of several dozen benzimidazole and imidazole compounds. The progression of the iterative design is depicted in Chart 1 for four compounds, culminating in 4. […] The X-ray structures for the complexes of compounds 2 (non-covalent) and 4 (covalent) with the BlaR sensor domain are shown respectively in FIG. 2b (2.0 Å resolution) and FIG. 2c (1.97 Å resolution). Compound 4 makes a covalent bond with the catalytic Ser389 and creates a network of hydrogen bonds with the BlaR active site (FIG. 2c).
(§2) Fluorescent assay for screening of BlaR potential inhibitors. A 3-mL portion of lysogeny broth (LB) medium was inoculated with NRS144pCN52RI Venus from frozen stocks and grown overnight at 37° C. The overnight culture was then diluted 1:150 fold with fresh LB containing […] of erythromycin and incubated at 37° C. to an OD600 of 0.3, at which point fluorescence was induced by the addition of CBAP to a final concentration of 10 μg·mL^−1. The culture was aliquoted (99 L) into 96-well plate and 1 L of inhibitor solution (1 mg·mL^−1 in DMSO) was added to each well. Negative control (DMSO without CBAP) and positive control (CBAP without inhibitor) were included. The plate was incubated at 30° C. for 2 h with intermittent shaking. Fluorescence and OD600 measurements were taken by a Cytation-5 multimode microplate reader. Percent inhibition of BlaR and bacterial growth were calculated using absorbance unit (AU) and OD600 values of each sample entered into this formula: […]

[2] = test system: S. aureus NRS144pCN52RI-Venus; test: Bacterial growth inhibition (OD600) in the fluorescent screening assay; assay type: cell-based, Staphylococcus aureus; conditions: compound at 100 mg/L^−1; OD600 after 2 h
Method: as §1, §2

[3] = test system: S. aureus; test: Potentiation of β-lactams by cyclic boronate β-lactamase inhibitors; assay type: cell-based, Staphylococcus aureus

Chain of BlaR (P18357 whole entry): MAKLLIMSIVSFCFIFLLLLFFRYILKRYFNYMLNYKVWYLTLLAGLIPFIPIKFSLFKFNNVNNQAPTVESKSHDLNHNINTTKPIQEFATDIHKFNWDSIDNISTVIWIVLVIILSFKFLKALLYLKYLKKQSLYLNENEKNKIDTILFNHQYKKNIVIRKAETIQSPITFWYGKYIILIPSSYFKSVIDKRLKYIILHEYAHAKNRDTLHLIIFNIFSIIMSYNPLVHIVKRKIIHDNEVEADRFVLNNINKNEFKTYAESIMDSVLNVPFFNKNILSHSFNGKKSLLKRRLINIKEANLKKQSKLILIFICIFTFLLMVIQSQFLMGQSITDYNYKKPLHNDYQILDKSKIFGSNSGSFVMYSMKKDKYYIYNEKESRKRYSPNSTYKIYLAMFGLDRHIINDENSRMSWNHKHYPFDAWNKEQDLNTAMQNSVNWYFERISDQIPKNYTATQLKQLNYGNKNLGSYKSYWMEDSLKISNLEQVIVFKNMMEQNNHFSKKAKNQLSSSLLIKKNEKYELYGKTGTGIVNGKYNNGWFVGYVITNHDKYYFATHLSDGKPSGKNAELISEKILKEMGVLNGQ

Row | SMILES | % Inhibition of BlaR [1] | % Inhibition of bacterial growth [2] | potentiation of the anti-S. aureus activities of MEM, OXA, FOX and CPT [3]
1 | O=S(=O)(O)c1nc2ccc(CO)cc2n1Cc1ccc(C(F)(F)F)cc1C(F)(F)F [Compound 18] | 97% | 0% | –
2 | N#Cc1ccc2nc(N)n(Cc3ccc(C(F)(F)F)cc3C(F)(F)F)c2c1 [Compound 19] | 55% | 0% | –
3 | Nc1nc2ccc(CO)cc2n1Cc1ccc(C(F)(F)F)cc1C(F)(F)F [Compound 21] | 89% | 0% | –
4 | O=C(/C=C/c1ccc(F)cc1)NCc1ccc2nc(S)n(Cc3ccc(C(F)(F)F)cc3C(F)(F)F)c2c1 [Compound 23] | 76% | 70% | –
5 | O=C(/C=C/c1ccc(Cl)cc1Cl)NCc1ccc2nc(S)n(Cc3ccc(C(F)(F)F)cc3C(F)(F)F)c2c1 [Compound 25] | 75% | 50% | –
6 | O=C(/C=C/c1ccc(F)cc1)NCc1ccc2nc(S(=O)(=O)O)n(Cc3ccc(C(F)(F)F)cc3C(F)(F)F)c2c1 [Compound 26] | 99% | 100% | –
7 | O=C(/C=C/c1ccc(C(F)(F)F)cc1F)NCc1ccc2nc(S)n(Cc3ccc(C(F)(F)F)cc3C(F)(F)F)c2c1 [Compound 27] | 79% | 55% | –
8 | O=C(/C=C/c1ccc(C(F)(F)F)cc1F)NCc1ccc2nc(S(=O)(=O)O)n(Cc3ccc(C(F)(F)F)cc3C(F)(F)F)c2c1 [Compound 28] | 92% | 100% | –
9 | O=C(CCc1ccc(F)cc1)NCc1ccc2nc(S)n(Cc3ccc(C(F)(F)F)cc3C(F)(F)F)c2c1 [Compound 29] | 59% | 0% | –
10 | O=C(CCc1ccc(F)cc1)NCc1ccc2nc(S(=O)(=O)O)n(Cc3ccc(C(F)(F)F)cc3C(F)(F)F)c2c1 [Compound 30] | 86% | 0% | –
11 | C[N+]12CC(=O)O[B-]1(CSc1nc3ccc(C#N)cc3n1Cc1ccc(C(F)(F)F)cc1C(F)(F)F)OC(=O)C2 (stereo not drawn) [Compound 32] | 93% | 20% | –
12 | COC(=O)c1ccc2nc(SCB(O)O)n(Cc3ccc(C(F)(F)F)cc3C(F)(F)F)c2c1 [Compound 33] | 95% | 13% | –
13 | O=C(O)c1ccc2nc(SCB(O)O)n(Cc3ccc(C(F)(F)F)cc3C(F)(F)F)c2c1 [Compound 34] | 92% | 18% | –
14 | COC(=O)c1ccc2nc(SC[B-]34OC(=O)C[N+]3(C)CC(=O)O4)n(Cc3ccc(C(F)(F)F)cc3C(F)(F)F)c2c1 (stereo not drawn) [Compound 35] | 98% | 33% | –
15 | N#CCCSc1nc2ccc(C#N)cc2n1Cc1ccc(C(F)(F)F)cc1C(F)(F)F [Compound 36] | 90% | 40% | –
16 | COC(=O)c1ccc2nc(SCCC#N)n(Cc3ccc(C(F)(F)F)cc3C(F)(F)F)c2c1 [Compound 38] | 89% | 16% | –
17 | COC(=O)c1ccc2nc(SCCCC#N)n(Cc3ccc(C(F)(F)F)cc3C(F)(F)F)c2c1 [Compound 39] | 92% | 25% | –
18 | OCc1nc2ccccc2n1Cc1ccc(C(F)(F)F)cc1C(F)(F)F [Compound 40] | 67% | 25% | –
19 | FC(F)(F)c1ccc(Cn2c(CBr)nc3ccccc32)c(C(F)(F)F)c1 [Compound 41] | 78% | 36% | –

Row | SMILES | % Inhibition of BlaR [1] | % Inhibition of bacterial growth [2] | potentiation of the anti-S. aureus activities of MEM, OXA, FOX and CPT [3]
20 | OB(O)Cc1nc2ccccc2n1Cc1ccc(C(F)(F)F)cc1C(F)(F)F [Compound 42] | 99% | 82% | –
21 | OB(O)CCc1nc2ccccc2n1Cc1ccc(C(F)(F)F)cc1C(F)(F)F [Compound 46] | 0% | 49% | –
22 | NCc1cn(Cc2ccc(C(F)(F)F)cc2C(F)(F)F)c(=S)[nH]1 [Compound 48] | 50% | 90% | –
23 | NSc1nc([C@H](O)[C@H](O)CO)cn1Cc1ccccc1 [Compound 52] | 33% | 0% | –
24 | O=S(=O)(O)c1nccn1Cc1ccc(C(F)(F)F)cc1C(F)(F)F [Compound 54] | 18% | 0% | –
25 | N#Cc1cn(Cc2ccc(C(F)(F)F)cc2C(F)(F)F)cn1 [Compound 55] | 0% | 0% | –
26 | O=S(=O)(Cl)c1nc(CO)cn1Cc1ccc(C(F)(F)F)cc1C(F)(F)F [Compound 57] | 83% | 0% | –
27 | OCc1cn(Cc2ccc(C(F)(F)F)cc2C(F)(F)F)c(Cl)n1 [Compound 58] | 43% | 0% | –
28 | O=S(=O)(O)c1nc(CO)cn1Cc1ccc(C(F)(F)F)cc1C(F)(F)F [Compound 60] | 0% | 0% | –
29 | NCc1cn(Cc2ccc(C(F)(F)F)cc2C(F)(F)F)c(S(=O)(=O)O)n1 [Compound 63] | 50% | 18% | –
30 | CC(C)(C)OC(=O)NCc1cn(Cc2ccc(C(F)(F)F)cc2C(F)(F)F)c(S(=O)(=O)O)n1 [Compound 64] | 75% | 40% | –
31 | COc1ccc(CSc2nc(CNC(=O)OCc3ccccc3)cn2Cc2ccc(C(F)(F)F)cc2C(F)(F)F)cc1 [Compound 65] | 19% | 0% | –
32 | O=C(O)c1cn(Cc2ccc(C(F)(F)F)cc2C(F)(F)F)c(S(=O)(=O)O)n1 [Compound 72] | 11% | 0% | –
33 | OCC1NC(=S)N(Cc2ccc(C(F)(F)F)cc2C(F)(F)F)N1 (stereo not drawn) [Compound 77] | 71% | 30% | –
34 | OCc1nn(Cc2ccc(C(F)(F)F)cc2C(F)(F)F)c(=S)[nH]1 [Compound 78] | 70% | 56% | –
35 | OCC1NC(=S)N(c2ccc(C(F)(F)F)cc2)N1 (stereo not drawn) [Compound 79] | 75% | 65% | –
36 | NCCN[C@H]1CC[C@H](CC(=O)N[C@H]2Cc3cccc(C(=O)O)c3OB2O)CC1 [taniborbactam] | – | – | no activity
37 | O=C(O)C[C@@H]1CC[C@H](NC(=O)Cc2cccs2)B(O)O1 [vaborbactam] | – | – | no activity
